Ends that are not written are not given here.
How the values were obtained:
[1] = system: D222D clone 2 or a MelanA26–35-reactive clone vs. cognate peptide-pulsed LCLs; assay: inhibition of lysis of cognate peptide-pulsed LCLs by CD8^+ T-cell clones; assay type: cell-based, human; conditions: D222D clone 2 or MelanA26–35-reactive clone; 4 h, E/T 1/1; triplicate; Fig. 1F
[2] = system: ZnT8_186–194-reactive CD8^+ T-cell clones; assay: effect on MMr staining of ZnT8_186–194-reactive CD8^+ T-cell clones; assay type: cell-based, human; conditions: normalized MMr fluorescence intensities between clones; Fig. 2B
[3] = molecular target: recombinant HLA-A2 molecules (Homo sapiens, UniProt P04439, D140Y/D185E/D98H/E176V/E277Q/G131W/G231S/I119V/I121R/I166T/I218V/L300P/L318F/N151K/N90K/P208A/P217A/Q86G/Q94H/R138H/R169H/T345S); assay: peptide binding to recombinant HLA-A2
[4] = system: ZnT8_186–194-reactive CD8^+ T-cell clone H017N; assay type: cell-based, human; conditions: peptide-pulsed LCLs, 0.1 µM, 6 h, percent cytokine^+ cells, two experiments, p=0.008, Fig. 7E

Molecule | inhibition of lytic activity [1] | Kd [3] [µM] | other results
C[C@H]1CCC/C=C/[C@@H]2C[C@H](O)C[C@H]2[C@H](O)/C=C/C(=O)O1 [brefeldin A] | marginally | – | –
C/C=C/[C@H]1O[C@@](O)([C@@H](C)[C@H](O)[C@H](C)[C@H]2OC(=O)/C(OC)=C/C(C)=C/[C@@H](C)[C@@H](O)[C@@H](CC)[C@@H](O)[C@H](C)C/C(C)=C/C=C/[C@@H]2OC)C[C@@H](O[C@H]2C[C@@H](O)[C@H](OC(N)=O)[C@@H](C)O2)[C@@H]1C [concanamycin A] | inhibited significantly | – | –
Cc1nc(Nc2ncc(C(=O)Nc3c(C)cccc3Cl)s2)cc(N2CCN(CCO)CC2)n1 [dasatinib] | – | – | effect on variability of MMr fluorescence intensity [2]: reduced variability
AVAANIVLTV [ZnT8_185–194] | – | 0.207 | –
KAANIVLTV [B. stercoris mimotope] | – | – | agonist potency relative to native ZnT8_186–194 peptide [4]: stronger agonist potency
VAANIVLTV [ZnT8_186–194] | – | 0.015 | –

— PMC5874133 (Science immunology, 2018)
